Patent publication US20090074911A1, “Indicia-Bearing Package For Delivery Systems” (CADBURY ADAMS USA LLC, priority 2005, published 2009)

Experiment: Discoloration (degradation) of sucralose during encapsulation
Type: physicochemical
Description: As one example of a hydrophilic coating, sucralose was mixed with powdered polyvinyl acetate and 5% fat and extruded at 110° C. […] In an alternative encapsulation, sucralose was mixed with powdered polyvinyl acetate, 2% polyvinylpyrollidone and 1% magnesium stearate and pressed into tablets at 25° C. The tablets were then heated to 80° C., which softened the polymer and fused the polyvinylacetate with the sucralose. […] Thereafter, the tablets were cooled, ground and sized and analyzed. […] As another example, a polymer/sweetener matrix was prepared as described above in this paragraph. A solution of gum arabic was made and coated on the polymer/sweetener matrix particles using the method described in U.S. Pat. No. 3,196,827, the relevant portions of which are incorporated herein by reference. Coating levels were 20, 30, 40, and 50% for different samples. Chewing gums prepared with the coated polymer/sweetener matrix particles were chewed by a panel with bolus collection at 5, 10, 15, 20 minutes. Residual sucralose was analyzed in each chewed bolus.

discoloration indicating degradation of the sucralose (mixed with powdered polyvinyl acetate and 5% fat, extruded at 110° C.): Extensive discoloration
discoloration of the sucralose (mixed with powdered polyvinyl acetate, 2% polyvinylpyrollidone, 1% magnesium stearate, pressed into tablets at 25° C., heated to 80° C.): No discoloration
discoloration of the sucralose (same tablets after being cooled, ground, sized and analyzed): no discoloration
SMILES: OC[C@H]1O[C@H](O[C@]2(CCl)O[C@H](CCl)[C@@H](O)[C@@H]2O)[C@H](O)[C@@H](O)[C@H]1Cl [sucralose]
